Assay in all cases: NCI-60 cell line screen, 48 h
The subject of assay [1] is M14 melanoma.
Assay [2] concerns RXF 393 renal.
The subject of assay [3] is HS 578T breast.
Assay [4] has as its system SNB-75 CNS.
For assay [5], the system named is A549 NSCLC.
The subject of assay [6] is NCI-H522 lung.
The test system of assay [7] is NCI-H226 lung.
Assay [8] deals with TK-10 renal.
Assay [9] concerns EKVX NSCLC.
The subject of assay [10] is SK-MEL-2 melanoma.
Assay [11] deals with KM12 colon.
Assay [12] concerns MDA-N.
For assay [13], the system named is SK-MEL-28 melanoma.
Assay [14] relates to CAKI-1 renal.
Assay [15] deals with RPMI-8226 leukemia.
In assay [16] the test system is SK-MEL-5 melanoma.

Consider 19 compounds from PubChem BioAssay (NCI).

Structures are written as SMILES. Where “and” joins values, the source holds several entries; their conditions need not be identical. Equal entries are not always repeated.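 Test compounds were applied to cells in 96-well plates for 48 hours at 5 doses. Abbreviation: GI50, concentration required for 50% inhibition of growth. TGI denotes the concentration required for complete inhibition of growth.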 Where only a bound is given, the exact number is not on record here.

Regarding `Cc1c(C(=O)O)c2cc3ccccc3cc2c(=O)n1C`, the TGI in assay [1], in assay [2], in assay [3], in assay [4], in assay [5] and in [6] was over 10 µM in each case. Moreover, the TGI in assay [7], in [8], in assay [9], in assay [10], in [11] and in [12] was over 10 µM in each case.

Turning to `CN(C)c1ccc(/C=C(\NC(=O)c2ccccc2)C(=O)Nc2ccccc2C(=O)O)cc1`, the TGI in [1], in assay [2], in assay [13], in [3], in assay [14] and in assay [4] was over 100 µM in each case. Also, the TGI in [5], in [6], in assay [15], in assay [7], in [9] and in assay [10] was over 100 µM each time. In addition, the TGI in assay [11], in assay [12] and in assay [16] was over 100 µM in each case.

For the compound `Nc1nc(NNc2ccc(Cl)c(Cl)c2)cc(=O)[nH]1`, the TGI in [1] was over 100 µM; in [2], 67.5 µM; in [13], over 100 µM; in assay [3], over 100 µM; in assay [5], over 100 µM; in [15], over 100 µM. Further, the TGI in [7], in assay [8], in assay [9], in assay [11], in assay [12] and in assay [16] was over 100 µM each time.

Take `Cc1ccc2c(=O)c(-c3nnc(N)s3)c[nH]c2n1`: the TGI in assay [1], in assay [2], in assay [13], in [3], in assay [14] and in assay [5] was over 100 µM throughout. In addition, the TGI in assay [6], in assay [15], in assay [7], in assay [8], in assay [9] and in assay [10] was over 100 µM throughout. Moreover, the TGI in assay [11], in [12] and in assay [16] was over 100 µM each time.

Regarding `CC(=O)Nc1cc2c(cc1O)CC[C@@H]1[C@@H]2CC[C@]2(C)[C@@H](O)CC[C@@H]12`, the TGI in assay [1], in assay [2], in assay [13], in [3], in assay [14] and in assay [5] was over 100 µM throughout. Further, the TGI in [6] was 81.5 µM; in [15], over 100 µM; in [7], over 100 µM; in assay [8], over 100 µM; in assay [9] it was over 100 µM; in assay [11], 31.4 µM. The TGI in assay [12] stood at 52.1 µM; in [16], 59.8 µM.

As to `COc1ccc(C2=NN(c3ccccc3)C(c3cc4cc(Br)ccc4nc3Cl)C2)cc1` (stereo not given), the TGI in assay [1], in [2], in assay [13], in [3], in assay [14] and in [4] was over 25 µM throughout. In addition, the TGI in assay [5], in assay [6], in assay [15], in [7], in assay [9] and in assay [10] was over 25 µM each time. For the same compound, the TGI in [11], in assay [12] and in assay [16] was over 25 µM in each case.

Turning to `Cc1nc2ccccc2c(=O)n1NC(=O)c1ccccc1O`, the TGI in assay [1], in [2], in assay [13], in [3], in assay [4] and in assay [5] was over 100 µM each time. For the same compound, the TGI in [6], in assay [15], in assay [7], in assay [8], in assay [9] and in [11] was over 100 µM in each case. Further, the TGI in assay [12] and in assay [16] was over 100 µM throughout.

For the compound `O=C(Nc1ccccc1C(=O)O)/C(=C/c1ccccc1)NC(=O)c1ccccc1`, the TGI in assay [1], in assay [2], in assay [13], in [3], in assay [14] and in assay [4] was over 100 µM each time. The TGI in [5], in [6], in assay [15], in [7], in assay [9] and in assay [10] was over 100 µM each time. Also, the TGI in assay [11], in assay [12] and in assay [16] was over 100 µM in each case.

For `COc1ccc(-n2c(C)nc3ccc(NC4OCC(O)C(O)C4O)cc3c2=O)cc1` (stereo not given), the TGI is 81.9 µM and 87.8 µM in assay [2]; > 100 µM and 57 µM in assay [13]; over 100 µM in [3]; over 100 µM in [14]; over 100 µM in [4]; 72 µM and 55 µM in assay [6]. The TGI was 49.4 µM and 61.6 µM in [15]; over 100 µM in [7]; over 100 µM in assay [8]; over 100 µM in assay [9]; over 100 µM in [10]; over 100 µM in [11]. The TGI in [12] and in assay [16] was over 100 µM each time. For the same compound, the GI50 is > 100 µM and 39.5 µM in assay [14]; 36.5 µM and > 100 µM in assay [11].

With `COc1cc(C(N)=O)cc(NC(=O)/C=C/c2ccccc2)c1OC`, the TGI was over 100 µM in [1]; over 100 µM in [2]; over 100 µM in assay [13]; over 100 µM in [3]; over 100 µM in [14]; 93.1 µM in assay [4]. Besides, the TGI in [5], in assay [6], in assay [15], in [8], in assay [9] and in [10] was over 100 µM in each case. Besides, the TGI in assay [11], in assay [12] and in assay [16] was over 100 µM throughout.

Take `COC(=NCCC1=CCCCC1)OC`: the TGI in [1] is 47.3 µM; in assay [2] it was over 100 µM; in [13] it was over 100 µM; in assay [3], over 100 µM; in assay [14], over 100 µM; in [4] it was over 100 µM. Moreover, the TGI in [5] was over 100 µM; in assay [6], over 100 µM; in assay [15], 85.8 µM; in assay [8], over 100 µM; in assay [9] it was over 100 µM; in assay [10], over 100 µM. Also, the TGI in [11], in [12] and in assay [16] was over 100 µM throughout.

Consider `O=C1CC(=O)c2c(Cl)sc(Cl)c21`, for which the TGI in assay [1] was over 100 µM; in assay [2] it was 86.2 µM; in [13], over 100 µM; in assay [3] it was 93.9 µM; in [14], over 100 µM; in [4], over 100 µM. Also, the TGI is over 100 µM in [5]; 47.1 µM in [6]; over 100 µM in assay [7]; over 100 µM in [8]; over 100 µM in [9]; over 100 µM in [10]. Further, the TGI in assay [11], in assay [12] and in assay [16] was over 100 µM in each case.

With `Cc1c[nH]c(C(=O)O)c1-c1ccc2c(-c3ccccc3)nc3ccccc3n12`, the TGI is over 100 µM in assay [1]; 55.2 µM in [2]; 76.3 µM in assay [13]; 67.3 µM in assay [3]; over 100 µM in assay [14]; 56.4 µM in assay [4]. Moreover, the TGI is over 100 µM in assay [5]; 60.6 µM in [6]; 57.8 µM in assay [7]; over 100 µM in assay [8]; over 100 µM in assay [9]; 55.1 µM in assay [10]. Further, the TGI in assay [11] was 56.8 µM; in assay [12] it was 48.4 µM; in assay [16], over 100 µM.

On to `COc1ccc(N[C@H](CS(=O)c2ccc(C)cc2)C(F)(F)C(F)(F)F)cc1` (stereo not given in full), for which the TGI in assay [1] is over 100 µM; in assay [2] it was 32.4 µM; in [13], over 100 µM; in [3] it was over 100 µM; in assay [14], over 100 µM; in assay [4] it was 75.6 µM. Besides, the TGI in assay [5], in assay [6], in assay [15], in assay [7], in assay [8] and in assay [9] was over 100 µM each time. Moreover, the TGI in assay [11], in assay [12] and in assay [16] was over 100 µM each time.

As to `COC(=O)/C=C1/N=C(N(C)/N=C/c2ccccc2)NC1=O`, the TGI in assay [1], in assay [2], in assay [13], in assay [3], in assay [14] and in [4] was over 100 µM in each case. For the same compound, the TGI in assay [5], in assay [6], in [8], in assay [9], in assay [10] and in assay [11] was over 100 µM each time. Also, the TGI in assay [12] and in assay [16] was over 100 µM in each case.

`O=P1(Oc2ccc(Cl)cc2)OCCS1` (stereo not given): the TGI in [1], in [2], in assay [13], in assay [3], in assay [4] and in [5] was over 100 µM each time. The TGI in assay [6], in assay [15], in [7], in [8], in [9] and in assay [10] was over 100 µM throughout. Besides, the TGI in assay [12] and in assay [16] was over 100 µM throughout.

Turning to `Cc1ccc(S(=O)(=O)Oc2ccc(OS(=O)(=O)c3ccc(C)cc3)c3c2C(=O)c2ccccc2C3=O)cc1`, the TGI in [1] is over 100 µM; in assay [2], 68.6 µM; in assay [13], over 100 µM; in assay [3], over 100 µM; in assay [14], over 100 µM; in assay [4], 64.1 µM. Also, the TGI in assay [5], in assay [6], in assay [7], in assay [8], in assay [9] and in [10] was over 100 µM each time. The TGI in assay [11], in assay [12] and in assay [16] was over 100 µM throughout.

On to `CC(=O)O[C@H]1CC[C@@]2(C)C(=CC[C@@H]3[C@@H]2CC[C@]2(C)C(=N/O)/C(=C/c4ccc([N+](=O)[O-])cc4)C[C@@H]32)C1`, for which the TGI in assay [1] is 47.7 µM; in assay [2], over 100 µM; in assay [13], over 100 µM; in assay [3], 8.46 µM; in assay [14] it was 6.1 µM; in assay [4] it was 40.5 µM. The TGI in assay [5] is over 100 µM; in assay [6], 8.94 µM; in assay [15], over 100 µM; in assay [7], 67.7 µM; in assay [8], 55.3 µM; in [10] it was 17.5 µM. The figures for the TGI in [11], in assay [12] and in assay [16] were over 100 µM, over 100 µM and 7.95 µM, respectively.

As for `Cc1cc2c(cc1C)[n+](=O)c(C(=O)N1CCN(c3ccc([N+](=O)[O-])cc3)CC1)c(C)n2[O-]`, the TGI is over 100 µM in [1]; 41.3 µM in assay [2]; over 100 µM in assay [13]; over 100 µM in assay [3]; over 100 µM in assay [14]; over 100 µM in [5]. The TGI in [6] was over 100 µM; in [15], over 100 µM; in assay [8], 40.4 µM; in [9], 87.4 µM; in [10], over 100 µM; in assay [11], over 100 µM. Further, the TGI in [12] and in [16] was over 100 µM in each case.
